# From patent US5432165A, “Methods for the treatment of infection caused by Hepatitis B virus (HBV)” (priority 1992, dated 1995)
# Assay: Adverse Experience Summary (Table II), HIV-infected patients
# Assay type: in vivo, human
# From the text: A summary of the adverse effects experienced by some of the patients involved in the various dosage studies conducted are presented in Table II, attached hereto. Where no entry is given, no adverse experience was observed.
structure (smiles),measurement,setting,value
"O=c1[nH]c(=O)n([C@@H]2O[C@H](CO)[C@@H](O)[C@@H]2F)cc1I [FIAU, 1-(2'-deoxy-2'-fluoro-β-D-arabinofuranosyl)-5-iodouracil]","Incidence: ALT elevation, moderate (2.5-5.0x)",0.1 mg/kg-day,2/4
same,"Incidence: ALT elevation, severe (>5x)",0.1 mg/kg-day,1/4
same,"Incidence: AST elevation, moderate (2.5-5.0x)",0.1 mg/kg-day,2/4
same,"Incidence: AST elevation, severe (>5x)",0.1 mg/kg-day,1/4
same,"Incidence: Fatigue, moderate",0.1 mg/kg-day,1/4
same,"Incidence: Hyperbilirubemia, mild",0.1 mg/kg-day,2/4
same,"Incidence: Hypercalcemia, mild",0.1 mg/kg-day,1/4
same,"Incidence: Hypocalcemia, mild",0.1 mg/kg-day,1/4
same,"Incidence: Hypoglycemia, mild",0.1 mg/kg-day,1/4
same,"Incidence: Hyponatremia, mild",0.1 mg/kg-day,1/4
same,"Incidence: ALT elevation, mild (1.25-2.5x)",0.5 mg/kg-day,3/10
same,"Incidence: ALT elevation, severe (>5x)",0.5 mg/kg-day,2/10
same,"Incidence: AST elevation, mild (1.25-2.5x)",0.5 mg/kg-day,3/10
same,"Incidence: AST elevation, moderate (2.5-5.0x)",0.5 mg/kg-day,1/10
same,"Incidence: AST elevation, severe (>5x)",0.5 mg/kg-day,2/10
same,"Incidence: Diarrhea, mild",0.5 mg/kg-day,1/10
same,"Incidence: Disoriented, mild",0.5 mg/kg-day,1/10
same,"Incidence: Fatigue, mild",0.5 mg/kg-day,3/10
same,"Incidence: Fatigue, moderate",0.5 mg/kg-day,1/10
same,"Incidence: Headache, mild",0.5 mg/kg-day,2/10
same,"Incidence: Headache, moderate",0.5 mg/kg-day,1/10
same,"Incidence: Hemauria, moderate",0.5 mg/kg-day,1/10
same,"Incidence: Hypophosphatemia, moderate",0.5 mg/kg-day,1/10
same,"Incidence: Nausea, mild",0.5 mg/kg-day,3/10
same,"Incidence: Nausea, moderate",0.5 mg/kg-day,1/10
same,"Incidence: Proteinuria, mild",0.5 mg/kg-day,1/10
same,"Incidence: Stomatitis, moderate",0.5 mg/kg-day,1/10
same,"Incidence: Vomiting, mild",0.5 mg/kg-day,2/10
same,"Incidence: Weakness, mild",0.5 mg/kg-day,2/10
same,"Incidence: ALT elevation, mild (1.25-2.5x)",1.0 mg/kg-day,4/9
same,"Incidence: ALT elevation, moderate (2.5-5.0x)",1.0 mg/kg-day,1/9
same,"Incidence: ALT elevation, severe (>5x)",1.0 mg/kg-day,3/9
same,"Incidence: AST elevation, mild (1.25-2.5x)",1.0 mg/kg-day,4/9
same,"Incidence: AST elevation, moderate (2.5-5.0x)",1.0 mg/kg-day,1/9
same,"Incidence: AST elevation, severe (>5x)",1.0 mg/kg-day,3/9
same,"Incidence: Abdominal Cramping, moderate",1.0 mg/kg-day,1/9
same,"Incidence: Constipation, mild",1.0 mg/kg-day,1/9
same,"Incidence: Decreases sensations, mild",1.0 mg/kg-day,1/9
same,"Incidence: Diarrhea, mild",1.0 mg/kg-day,2/9
same,"Incidence: Difficulty focusing, mild",1.0 mg/kg-day,1/9
same,"Incidence: Dizziness, mild",1.0 mg/kg-day,1/9
same,"Incidence: Fatigue, mild",1.0 mg/kg-day,2/9
same,"Incidence: Fatigue, moderate",1.0 mg/kg-day,1/9
same,"Incidence: Fatigue, severe",1.0 mg/kg-day,1/9
same,"Incidence: Headache, mild",1.0 mg/kg-day,1/9
same,"Incidence: Headache, severe",1.0 mg/kg-day,1/9
same,"Incidence: Heartbum, mild",1.0 mg/kg-day,1/9
same,"Incidence: Light Stools, mild",1.0 mg/kg-day,1/9
same,"Incidence: Nausea, mild",1.0 mg/kg-day,6/9
same,"Incidence: Nausea, moderate",1.0 mg/kg-day,1/9
same,"Incidence: Paresibesia (extremities), mild",1.0 mg/kg-day,1/9
same,"Incidence: Vomiting, mild",1.0 mg/kg-day,1/9
same,"Incidence: Weakness, mild",1.0 mg/kg-day,2/9
same,"Incidence: Weakness, moderate",1.0 mg/kg-day,1/9
same,"Incidence: myositis, severe",1.0 mg/kg-day,1/9
